Measured values reported in US20070128217A1 (priority 2003, published 2007).

Experiments:
[1] = tested on: recombinant human anti-SARS-CoV antibody 03-018; format: binding; parameters: Binding of antibody 03-018 to linear peptides of the N protein of SARS-CoV Urbani / Binding of antibody 03-018 to looped/cyclic peptides of the N protein of SARS-CoV Urbani: unit not given here
[2] = tested on: rabbit serum obtained by immunizing a rabbit with the SARS-CoV strain Frankfurt 1; format: binding; parameters: Binding of a rabbit serum to linear peptides / Binding of a rabbit serum to looped peptides / Rabbit serum linear peptides / Rabbit serum looped peptides / Binding of a rabbit serum to linear peptides of protein N of SARS-CoV Urbani (Rabbit serum linear peptides) / Binding of a rabbit serum to looped/cyclic peptides of protein N of SARS-CoV Urbani (Rabbit serum looped peptides): unit not given here
[3] = tested on: control sera (pooled serum of ten healthy LUMC hospital workers; commercial negative donor pooled serum from the Dutch bloodbank); format: binding, human; parameters: Binding of Control serum LUMC to linear peptides / Binding of Control serum Blood-bank to linear peptides / Binding of Control serum LUMC to looped peptides / Binding of Control Serum Blood-Bank to Looped peptides / Binding of Control serum LUMC to linear peptides of the protein M of SARS-CoV Urbani / Binding of Control serum Blood-bank to linear peptides of the protein M of SARS-CoV Urbani / Binding of Control serum LUMC to looped peptides of the protein M of SARS-CoV Urbani / Binding of Control Serum Blood-Bank to Looped peptides of the protein M of SARS-CoV Urbani: unit not given here
[4] = tested on: antibodies in sera from SARS patients (sera 1a, 1b, 2, 6, 37, 62, London, SARS-yellow, SARS-green); format: binding, human; parameters: Binding of serum 6 to linear peptides of protein X1 of SARS-CoV Urbani / Binding of serum 37 to linear peptides of protein X1 of SARS-CoV Urbani / Binding of serum 6 to looped/cyclic peptide (PEPSCAN-ELISA) / Binding of serum 37 to looped/cyclic peptide (PEPSCAN-ELISA) / Binding of serum 37 to looped/cyclic peptides of protein X1 of SARS-CoV Urbani / Binding of serum 6 to linear peptides of protein X2 / Binding of serum 37 to linear peptides of protein X2 / Binding of serum 37 to looped/cyclic peptides of protein X2 of SARS-CoV Urbani / Binding of serum 6 to linear peptides of protein M of SARS-CoV Urbani / Binding of serum 37 to linear peptides of protein M of SARS-CoV Urbani / Binding of serum 6 to looped/cyclic peptides of protein M of SARS-CoV Urbani / Binding of serum 37 to looped/cyclic peptides of protein M of SARS-CoV Urbani / Binding of serum 6 to linear peptides of protein X3 of SARS-CoV Urbani / Binding of serum 37 to linear peptides of protein X3 of SARS-CoV Urbani / Binding of serum 37 to looped/cyclic peptides of protein X3 of SARS-CoV Urbani / Binding of serum 6 to linear peptides of protein X4 of SARS-CoV Urbani / Binding of serum 37 to linear peptides of protein X4 of SARS-CoV Urbani / Binding of serum 37 to looped/cyclic peptides of protein X4 of SARS-CoV Urbani / Binding of serum 6 to linear peptides of protein X5 of SARS-CoV Urbani / Binding of serum 37 to linear peptides of protein X5 of SARS-CoV Urbani / Binding of serum 37 to looped/cyclic peptides of protein X5 of SARS-CoV Urbani / Binding of serum 6 to linear peptides of protein N of SARS-CoV Urbani / Binding of serum 37 to linear peptides of protein N of SARS-CoV Urbani / Binding of serum 6 to linear peptide (PEPSCAN-ELISA) / Binding of serum 1a to looped/cyclic peptides of protein N of SARS-CoV Urbani / Binding of serum 1b to looped/cyclic peptides of protein N of SARS-CoV Urbani / Binding of serum 2 to looped/cyclic peptides of protein N of SARS-CoV Urbani / Binding of serum 6 to looped/cyclic peptides of protein N of SARS-CoV Urbani / Binding of serum 37 to looped/cyclic peptides of protein N of SARS-CoV Urbani / Binding of serum 62 to looped/cyclic peptides of protein N of SARS-CoV Urbani / Binding of serum London to looped/cyclic peptides of protein N of SARS-CoV Urbani / Binding of serum SARS-green to looped/cyclic peptides of protein N of SARS-CoV Urbani: unit not given here

Sequence	Binding of antibody 03-018 to linear peptides of the N protein of SARS-CoV Urbani [1]	Binding of antibody 03-018 to looped/cyclic peptides of the N protein of SARS-CoV Urbani [1]	Binding of a rabbit serum to linear peptides of protein N of SARS-CoV Urbani (Rabbit serum linear peptides) [2]	Binding of a rabbit serum to looped/cyclic peptides of protein N of SARS-CoV Urbani (Rabbit serum looped peptides) [2]	Binding of Control Serum Blood-Bank to Looped peptides [3]	Binding of Control serum Blood-bank to linear peptides [3]	Binding of Control serum LUMC to linear peptides [3]	Binding of Control serum LUMC to looped peptides [3]	Binding of serum 1a to looped/cyclic peptides of protein N of SARS-CoV Urbani [4]	Binding of serum 1b to looped/cyclic peptides of protein N of SARS-CoV Urbani [4]	Binding of serum 2 to looped/cyclic peptides of protein N of SARS-CoV Urbani [4]	Binding of serum 6 to looped/cyclic peptides of protein N of SARS-CoV Urbani [4]	Binding of serum 37 to looped/cyclic peptides of protein N of SARS-CoV Urbani [4]	Binding of serum 62 to looped/cyclic peptides of protein N of SARS-CoV Urbani [4]	Binding of serum London to looped/cyclic peptides of protein N of SARS-CoV Urbani [4]	Binding of serum SARS-green to looped/cyclic peptides of protein N of SARS-CoV Urbani [4]	Binding of serum SARS-yellow to looped/cyclic peptides of protein N of SARS-CoV Urbani [4]	Recognition of the peptide by sera of SARS-CoV infected individuals, and form (linear, looped/cyclic) in which it is recognized [4]	Recognition of the peptide by the rabbit serum [2]
AAEASKKPRQKRTAT	0.1	0.2	0.3	0.5	0.5	0.8	0.9	0.5	0.2	0.1	0.2	0.1	0.4	0.3	0.3	0.1	0.2	recognized in linear form	
KRTATKQYNVTQAFG	0.1	0.2			0.6	0.7	0.8	0.6											recognized
LQLPQGTTLPKGFYA	0.1	0.2	0.2	1.0	0.5	1.0	0.8	0.5											
MASGGGETALALLLL	0.1	0.3	0.2	1.1	0.7	0.7	0.6	0.9											
NAATVLQLPQGTTLP	0.1	0.2	0.2	0.0	0.6	0.7	0.5	0.4											
PARMASGGGETALAL	0.1	0.3	0.2	0.7	0.7	1.0	0.8	0.9											
PQGTTLPKGFYAEGS	0.1	0.2	0.1	0.5	0.6	0.7	0.6	0.6											
RMASGGGETALALLL	0.1	0.3	0.2	0.4	0.8	0.6	0.5	0.8											
RQKRTATKQYNVTQA	0.1	0.2			0.9	0.9	0.8	0.8											recognized
SPARMASGGGETALA	0.1	0.1	0.2	0.0	0.1	0.9	0.8	0.2											
TATKQYNVTQAFGRR	0.1	0.3			0.9	0.8	0.8	1.0											recognized
TTLPKGFYAEGSRGG	0.1	0.2	0.2	0.4	0.6	0.6	0.7	0.5											
